24 molecules from patent US20240262793A1, “QUINAZOLINE COMPOUND, AND PREPARATION METHOD THEREFOR AND APPLICATION THEREOF” (SHANGHAI PHARMACEUTICALS HOLDING CO., LTD., priority 2021, published 2024) can be followed below.

SMILES strings stand for the structures.

One may read the IC50 as the midpoint of a concentration-inhibition curve. Lower therefore signals inhibition by little substance.

Common to all, as to assay type: cell-based
Holding throughout (conditions): Homo sapiens, THP-1, Table 7, PMA 50 ng/mL, LPS 100 ng/mL

One assay deals with IL-1β. The assay can be described thus: Inhibition of IL-1β in PMA-differentiated, LPS-stimulated THP-1 cells (ELISA of cell lysate). How it is done:
(§1) (1) Cell culture and inoculation: A stock solution of PMA at 1 mg/mL was diluted with serum-free RP1640 medium to prepare a 100 ng/mL PMA solution. Normal cultured THP-1 cells were centrifuged, resuspended in a complete medium (RP1640 medium containing 10% FBS), and counted. The cell density was adjusted to 2×10^6 cells/mL. An equal volume of 100 ng/mL PMA solution was then added, resulting in a cell density of 1×10^6 cells/mL and a final PMA concentration of 50 ng/mL. 100 μL of the cell suspension was seeded into each well of a 96-well cell culture plate with 1×10^5 cells per well. The 96-well cell culture plate was then incubated at 37° C. in a 5% CO2 atmosphere for 24 hours.
(§2) (2) Drug treatment of cells: On the second day, LPS was added to the complete medium to adjust the final concentration to 100 ng/mL, and the compound was prepared using this LPS-containing medium. The compound was added to the appropriate cell wells according to the prepared concentration gradient. The positive control group (LPS+) was a culture medium solution containing a final concentration of 100 ng/mL LPS and 0.1% DMSO without drugs, while the negative control group (LPS-) was a culture medium solution containing 0.1% DMSO without LPS. The volume in each well was 100 μL.
(§3) (3) Test sample collection: The mixture was centrifuged at 1000 rpm for 5 minutes and the cell supernatant and cell precipitate were collected separately. The cell supernatant was used to detect TNF-α and IL-6, and the cell precipitate was collected for IL-1β detection. After collecting the cell supernatant, the remaining liquid in the wells was discarded and 100 μL of cell lysis solution (20 mM Tris 8.0; 2 mM EDTA; 0.5% Triton X-100) was added to each well for complete lysis.
(§4) (4) Sample detection: The enzyme-linked immunosorbent assay (ELISA) was used to detect the content of each cytokine. The specific steps were performed according to the instructions provided in the corresponding kit manuals. The catalog numbers of kits are as follows: • Human TNF-alpha Quantikine ELISA Kit, Catalog # STA00D • Human IL-1 beta/IL-1F2 Quantikine ELISA Kit, Catalog # SLB50 • Human IL-6 Quantikine ELISA Kit, Catalog # S6050.
(§5) (5) Data analysis: The in vitro inhibitory activity of the compounds was calculated using the following formula: […]
Background: An ELISA detects its analyte on a solid surface through an enzyme-linked reagent.

The subject of another assay is TNF-α. The assay is described as follows: Inhibition of TNF-α in PMA-differentiated, LPS-stimulated THP-1 cells (ELISA of cell supernatant). On the procedure: as §1, §2, §3, §4, §5
For a further assay, the system named is IL-6. The assay is described as follows: Inhibition of IL-6 in PMA-differentiated, LPS-stimulated THP-1 cells (ELISA of cell supernatant). On the procedure:
as §1, §2, §3, §4, §5

Regarding `CC(CCCN(CCO)Cc1ccccn1)Nc1ccnc2cc(Cl)ccc12` (stereo not drawn) [Example 19, 2-((4-((7-Chloroquinolin-4-yl)amino)pentyl)(pyridin-2-ylmethyl)amino)ethan-1-ol], the IC50 turned out to be 2.2 µM in the assay on IL-1β, 14.3 µM in the assay with TNF-α and 0.81 µM in the assay on IL-6.

As to `CC(CCCN(CCO)Cc1cccc(F)c1)Nc1ncnc2cc(Cl)ccc12` (stereo not drawn) [Example 20, 2-((4-((7-Chloroquinazolin-4-yl)amino)pentyl)(3-fluorobenzyl)amino)ethan-1-ol], the IC50 with IL-1β was found to be 5.9 µM; with TNF-α, 6.4 µM; in the assay with IL-6, 0.47 µM.

As to `CC(CCCN(CCO)Cc1ccc(F)cc1F)Nc1ncnc2cc(Cl)ccc12` (stereo not drawn) [Example 21, 2-((4-((7-Chloroquinazolin-4-yl)amino)pentyl)(2,4-difluorobenzyl)amino)ethan-1-ol], the IC50 with IL-1β amounted to 0.65 µM; in the assay with TNF-α, 1.41 µM; in the assay on IL-6 it was 0.19 µM.

In the case of `COC(=O)c1ccc(CN(CCO)CCCC(C)Nc2ccnc3cc(Cl)ccc23)c(OC)c1` (stereo not drawn) [Example 22, Methyl 4-(((4-((7-chloroquinolin-4-yl)amino)pentyl)(2-hydroxyethyl)amino)methyl)-3-methoxybenzoate], the results for the concentration for half-maximal inhibition (IC50) in the assay with IL-1β, in the assay on TNF-α and with IL-6 were 9.79 µM, 6.91 µM and 2.06 µM, respectively.

Take `CC(CCCN(CCO)Cc1ccc(C#N)cc1)Nc1ccnc2cc(Cl)ccc12` (stereo not drawn) [Example 23, 4-(((4-((7-Chloroquinolin-4-yl)amino)pentyl)(2-hydroxyethyl)amino)methyl)benzonitrile]: the IC50 is 1.36 µM in the assay on IL-1β, 2.79 µM with TNF-α and 0.38 µM with IL-6.

Take `CC(CCCN(CCO)Cc1cccc(C(F)(F)F)c1)Nc1ccnc2cc(Cl)ccc12` (stereo not drawn) [Example 24, 2-((4-((7-Chloroquinolin-4-yl)amino)pentyl)(3-(trifluoromethyl)benzyl)amino)ethan-1-ol]: the IC50 in the assay with IL-1β was determined as 4.46 µM; in the assay with TNF-α it was 4.77 µM; in the assay with IL-6, 1.2 µM.

For `CC(CCCN(CCO)Cc1ccc2ccccc2c1)Nc1ccnc2cc(Cl)ccc12` (stereo not drawn) [Example 25, 2-((4-((7-Chloroquinolin-4-yl)amino)pentyl)(naphthalen-2-ylmethyl)amino)ethan-1-ol], the results for the IC50 in the assay with IL-1β, with TNF-α and in the assay with IL-6 were 4.36 µM, 5.07 µM and 1.32 µM, respectively.

In the case of `CC(CCCN(CCO)Cc1ccc(S(C)(=O)=O)cc1)Nc1ccnc2cc(Cl)ccc12` (stereo not drawn) [Example 26, 2-((4-((7-Chloroquinolin-4-yl)amino)pentyl)(4-(methylsulfonyl)benzyl)amino)ethan-1-ol], the 50% inhibitory concentration (IC50) with IL-1β came out at 14 µM; with TNF-α, 3.82 µM; with IL-6 it was 0.33 µM.

On to `COC(=O)c1ccc(CN(CCO)CCCC(C)Nc2ccnc3cc(Cl)ccc23)cc1` (stereo not drawn) [Example 27, Methyl 4-(((4-((7-chloroquinolin-4-yl)amino)pentyl)(2-hydroxyethyl)amino)methyl)benzoate], for which the concentration for half-maximal inhibition (IC50) stood at 5.78 µM in the assay with IL-1β, 2.17 µM with TNF-α and 0.53 µM in the assay on IL-6.

`CC(CCCN(CCO)Cc1ccc(-n2cccn2)cc1)Nc1ccnc2cc(Cl)ccc12` (stereo not drawn) [Example 28, 2-((4-(1H-Pyrazol-1-yl)benzyl)(4-((7-chloroquinolin-4-yl)amino)pentyl)amino)ethan-1-ol]: the results for the half-maximal inhibitory concentration (IC50) in the assay with IL-1β, with TNF-α and in the assay on IL-6 were 10.9 µM, 11.2 µM and 0.68 µM, respectively.

Regarding `CC(CCCN(CCO)Cc1c(F)cccc1Cl)Nc1ccnc2cc(Cl)ccc12` (stereo not drawn) [Example 29, 2-((2-Fluoro-6-chlorobenzyl)(4-((7-chloroquinolin-4-yl)amino)pentyl)amino)ethan-1-ol], the results for the IC50 in the assay with IL-1β, in the assay on TNF-α and in the assay on IL-6 were 4.11 µM, 2.63 µM and 0.36 µM, respectively.

Turning to `CC(CCCN(CCO)Cc1ccc(C#N)cc1F)Nc1ccnc2cc(Cl)ccc12` (stereo not drawn) [Example 30, 4-(((4-((7-Chloroquinolin-4-yl)amino)pentyl)(2-hydroxyethyl)amino)methyl)-3-fluorobenzonitrile], the figures for the IC50 with IL-1β, in the assay with TNF-α and in the assay on IL-6 were 1.34 µM, 0.97 µM and 0.12 µM, respectively.

`COc1ccc(CN(CCO)CCCC(C)Nc2ccnc3cc(Cl)ccc23)cc1F` (stereo not drawn) [Example 31, 2-((4-((7-Chloroquinolin-4-yl)amino)pentyl)(3-fluoro-4-methoxybenzyl)amino)ethan-1-ol]: the concentration for half-maximal inhibition (IC50) was 8.64 µM in the assay on IL-1β, 7.13 µM with TNF-α and 1.31 µM in the assay with IL-6.

On to `CC(CCCN(CCO)Cc1ccccc1)Nc1ncnc2cc(Cl)ccc12` (stereo not drawn) [Example 34, 2-(Benzyl(4-((7-chloroquinazolin-4-yl)amino)pentyl)amino)ethan-1-ol], for which the half-inhibitory concentration (IC50) was found to be 36.6 µM in the assay on IL-1β, 33.4 µM in the assay with TNF-α and 3.16 µM in the assay with IL-6.

Consider `CC(CCCN(CCO)Cc1ccccc1)Nc1ncnc2cc(F)ccc12` (stereo not drawn) [Example 35, 2-(Benzyl(4-((7-fluoroquinazolin-4-yl)amino)pentyl)amino)ethan-1-ol], for which the 50% inhibitory concentration (IC50) in the assay with IL-1β was 5.66 µM; with TNF-α, 20.1 µM; in the assay with IL-6, 0.82 µM.

Regarding `COC(=O)c1ccc(CN(CCO)CCCC(C)Nc2ncnc3cc(Cl)ccc23)cc1` (stereo not drawn) [Example 36, Methyl 4-(((4-((7-chloroquinazolin-4-yl)amino)pentyl)(2-hydroxyethyl)amino)methyl)benzoate], the half-inhibitory concentration (IC50) in the assay with IL-1β was 17.2 µM; in the assay on TNF-α, 6.86 µM; in the assay on IL-6 it was 1.05 µM.

On to `COc1ccc(CN(CCO)CCCC(C)Nc2ncnc3cc(Cl)ccc23)cc1F` (stereo not drawn) [Example 37], for which the IC50 in the assay on IL-1β turned out to be 41.8 µM; in the assay on TNF-α it was 4.88 µM; in the assay with IL-6, 0.18 µM.

Take `CC(CCCN(CCO)Cc1ccc(-n2cccn2)cc1)Nc1ncnc2cc(Cl)ccc12` (stereo not drawn) [Example 39]: the IC50 in the assay with IL-1β was found to be 7.4 µM; in the assay with TNF-α it was 7.89 µM; in the assay on IL-6, 0.77 µM.

For the molecule `CC(CCCN(CCO)Cc1ccc(S(C)(=O)=O)cc1)Nc1ncnc2cc(Cl)ccc12` (stereo not drawn) [Example 40], the IC50 in the assay with IL-1β was determined as 0.7 µM; in the assay with TNF-α it was 10.1 µM; with IL-6, 0.6 µM.

Consider `COC(=O)c1ccc(CN(CCO)CCCC(C)Nc2ccnc3cc(F)ccc23)cc1` (stereo not drawn) [Example 42], for which the figures for the IC50 with IL-1β, in the assay on TNF-α and in the assay on IL-6 were 3.31 µM, 6.56 µM and 2.84 µM, respectively.

Regarding `CC(CCCN(CCO)Cc1ccc(OC(F)(F)F)cc1)Nc1ccnc2cc(F)ccc12` (stereo not drawn) [Example 43], the IC50 in the assay on IL-1β amounted to 33.8 µM; with TNF-α, 4.01 µM; in the assay with IL-6, 1.57 µM.

As for `COC(=O)c1ccc(CN(CCO)CCCCCNc2ncnc3cc(Cl)ccc23)cc1` [Example 44, Methyl 4-(((5-((7-chloroquinazolin-4-yl)amino)pentyl)(2-hydroxyethyl)amino)methyl)benzoate], the values for the concentration for half-maximal inhibition (IC50) in the assay with IL-1β, in the assay with TNF-α and in the assay with IL-6 were 21.1 µM, 19.9 µM and 0.77 µM, respectively.

Regarding `OCCN(CCCCCNc1ncnc2cc(Cl)ccc12)Cc1ccc(OC(F)(F)F)cc1` [Example 45, 2-((5-((7-Chloroquinazolin-4-yl)amino)pentyl)(4-(trifluoromethoxy)benzyl)amino)ethan-1-ol], the values for the half-maximal inhibitory concentration (IC50) in the assay on IL-1β, in the assay with TNF-α and in the assay on IL-6 were 10.3 µM, 12.6 µM and 1.09 µM, respectively.

`OCCN(CCCCNc1ncnc2cc(Cl)ccc12)Cc1ncco1` [Example 47, 2-((4-((7-Chloroquinazolin-4-yl)amino)butyl)(oxazol-2-ylmethyl)amino)ethan-1-ol]: the IC50 with IL-1β came out at 1 µM; with TNF-α, 58.1 µM; in the assay on IL-6, 1.94 µM.
